Patent US9421220B2, “Anti-cancer composition comprising alginate” (THE UNIVERSITY OF BIRMINGHAM EDGBASTON, priority 2009, dated 2016)

Key:
Apc^Min/+ mouse = test: Tumour burden in Apc^Min/+ mice; type: in vivo; settings: for effect on tumour number, size or tumour burden compared to control mice: Apc^Min/+ mice fed control diet, sub-cutaneous injection
Description: To delineate how iron mediates colorectal carcinogenesis in-vivo, further experiments were carried out using the ‘Apc^Min/+’ mouse. These mice carry a mutation which disrupts the ability of the APC tumour suppressor to bind and turnover b-catenin, and the mice develop 100's of benign adenomas.
Apc^Min/+ mice were fed a standard control diet (n=17) or an iron deficient diet (n=11) immediately post weaning with tumour burden being assessed at 80 days of age. In addition mice were fed a high iron diet (standard control diet supplemented with 2% reduced pentacarbonyl iron (Harlan UK)) (n=6) but in these animals tumour burden was assessed at 45 days of age. A fourth group of Apc^Min/+ mice (n=9), were fed the standard control diet but upon reaching 50 days of age were injected sub-cutaneously with iron dextran (50 mgs) with tumour burden being assessed at 85 days of age. A fifth group of Apc^Min/+ mice (n=9), were fed the standard control diet and post weaning were injected daily sub-cutaneously with the systemic iron chelator desferioxamine (200 mgs/kg).

[1] = system: cells containing a mutant APC protein; settings: cells deficient in the APC protein exposed to iron; cited from earlier work
[2] = system: normal human colonic cells; settings: normal cells exposed to increased levels of iron; cited from earlier work

CC(=O)N(O)CCCCCNC(=O)CCC(=O)N(O)CCCCCNC(=O)CCC(=O)N(O)CCCCCN [desferioxamine]
effect on tumour number, size or tumour burden compared to control mice (Apc^Min/+ mouse): no effect

[Fe] [iron]
cellular viability and proliferation [1]: increased
phenotypic effects [2]: no phenotypic effects

iron dextran
effect on tumour number, size or tumour burden compared to control mice (Apc^Min/+ mouse): no effect
tumour burden (Apc^Min/+ mouse; Apc^Min/+ mice on iron deficient diet co-administered with iron dextran): suppression
